Measured values as given in patent US20170320870A1 (Medical Research Council Technology, priority 2009, published 2017).

Biological target: T1, LRRK2 wild type (recombinant human, catalytic domain amino acids 970-2527, GST-tagged) (Homo sapiens, UniProt Q5S007)
T1 construct: The wild type used was recombinant human, catalytic domain (amino acids 970-2527) GST-tagged, expressed in insect cells; GST; purchased Invitrogen Corporation PV4873; host or cells: insect cells
Assay: LRRK2 wild type protein kinase assay ([γ-33P] ATP, peptide substrate […]), IC50
Assay type: biochemical
Conditions: LRRK2 (variant not given); read-out: Potency score, LRRK2 IC50
Outline: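 IC50 derived from duplicate 10-point titrations, with 33P incorporation into a 100 μM peptide counted after P81 filter capture. Roughly 5 nM unactivated kinase reacted with Mg/[γ-33P]ATP for 180 min at room temperature (~21 °C), pH 7.5 Tris buffer containing 10 mM MgCl2, EGTA and DTT; acid-quenched.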

T1 sequence (Q5S007 970-2527): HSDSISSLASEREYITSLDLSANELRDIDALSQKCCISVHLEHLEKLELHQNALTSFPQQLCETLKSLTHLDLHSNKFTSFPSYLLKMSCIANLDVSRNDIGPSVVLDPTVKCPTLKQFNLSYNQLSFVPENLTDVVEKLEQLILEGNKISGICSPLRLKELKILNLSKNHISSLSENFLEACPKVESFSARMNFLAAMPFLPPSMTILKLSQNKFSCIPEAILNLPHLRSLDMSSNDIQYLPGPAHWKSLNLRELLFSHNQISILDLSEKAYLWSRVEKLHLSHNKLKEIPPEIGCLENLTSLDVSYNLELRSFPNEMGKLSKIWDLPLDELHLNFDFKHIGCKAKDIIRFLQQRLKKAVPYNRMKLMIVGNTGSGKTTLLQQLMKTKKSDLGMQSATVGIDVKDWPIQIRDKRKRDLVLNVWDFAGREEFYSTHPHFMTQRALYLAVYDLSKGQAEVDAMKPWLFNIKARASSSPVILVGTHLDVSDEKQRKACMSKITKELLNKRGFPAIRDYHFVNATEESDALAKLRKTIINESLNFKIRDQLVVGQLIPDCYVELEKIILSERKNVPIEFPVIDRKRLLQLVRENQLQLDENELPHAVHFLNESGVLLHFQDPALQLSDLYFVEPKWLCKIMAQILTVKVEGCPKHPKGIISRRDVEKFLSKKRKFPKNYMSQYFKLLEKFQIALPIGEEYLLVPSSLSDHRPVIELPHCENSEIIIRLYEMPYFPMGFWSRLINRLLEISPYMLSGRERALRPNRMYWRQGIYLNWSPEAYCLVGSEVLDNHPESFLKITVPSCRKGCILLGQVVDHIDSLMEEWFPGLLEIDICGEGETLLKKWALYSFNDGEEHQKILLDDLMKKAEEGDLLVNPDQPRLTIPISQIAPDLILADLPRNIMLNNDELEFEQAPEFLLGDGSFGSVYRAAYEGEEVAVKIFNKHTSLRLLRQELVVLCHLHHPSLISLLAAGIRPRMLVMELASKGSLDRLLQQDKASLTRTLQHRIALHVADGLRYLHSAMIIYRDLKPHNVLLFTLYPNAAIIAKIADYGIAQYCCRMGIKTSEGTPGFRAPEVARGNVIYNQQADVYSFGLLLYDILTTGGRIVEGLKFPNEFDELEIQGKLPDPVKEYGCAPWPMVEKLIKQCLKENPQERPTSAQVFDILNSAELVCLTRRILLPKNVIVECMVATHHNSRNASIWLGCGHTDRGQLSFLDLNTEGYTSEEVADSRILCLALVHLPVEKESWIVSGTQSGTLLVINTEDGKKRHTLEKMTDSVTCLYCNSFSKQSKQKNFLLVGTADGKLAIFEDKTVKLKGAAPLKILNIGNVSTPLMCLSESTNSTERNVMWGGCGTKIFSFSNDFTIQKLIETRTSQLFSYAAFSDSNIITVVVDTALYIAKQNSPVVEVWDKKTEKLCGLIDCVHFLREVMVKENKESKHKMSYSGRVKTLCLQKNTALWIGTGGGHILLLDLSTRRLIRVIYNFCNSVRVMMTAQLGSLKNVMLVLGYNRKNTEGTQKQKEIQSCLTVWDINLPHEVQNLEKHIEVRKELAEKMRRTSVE

IC50 [µM]	SMILES
0.1 to 1	CN1CCOc2cc(-c3n[nH]c4ccnc(NC5CCCCC5)c34)ccc21 [Example 161, Cyclohexyl-[3-(4-methyl-3,4-dihydro-2H-1,4-benzoxazin-7-yl)-1H-pyrazolo[4,3-c]pyridin-4-yl]-amine]
0.1 to 1	Cn1cc(-c2n[nH]c3ccnc(NC4CCCCC4)c23)cn1 [Example 162, Cyclohexyl-[3-(1-methyl-1H-pyrazolo-4-yl)-1H-pyrazolo[4,3-c]pyridin-4-yl]-amine]
1 to 10	Fc1cc(-c2n[nH]c3ccnc(NC4CCCCC4)c23)cc(F)c1F [Example 163, Cyclohexyl-[3-(3,4,5-trifluoro-phenyl)-1H-pyrazolo[4,3-c]pyridin-4-yl]-amine]
1 to 10	c1ccc2c(-c3n[nH]c4ccnc(NC5CCCCC5)c34)cncc2c1 [Example 164, Cyclohexyl-(3-isoquinolin-4-yl-1H-pyrazolo[4,3-c]pyridin-4-yl)-amine]
1 to 10	CN(C)C(=O)c1ccc(-c2n[nH]c3ccnc(NC4CCCCC4)c23)cc1 [Example 165, 4-(4-Cyclohexylamino-1H-pyrazolo[4,3-c]pyridin-3-yl)-N,N-dimethyl-benzamide]
1 to 10	Fc1cc(C(F)(F)F)ccc1-c1n[nH]c2ccnc(NC3CCCCC3)c12 [Example 166, Cyclohexyl-[3-(2-fluoro-4-trifluoromethyl-phenyl)-1H-pyrazolo[4,3-c]pyridin-4-yl]-amine]
0.1 to 1	Oc1nccc2[nH]nc(-c3ccoc3)c12 [Example 167, 3-Furan-3-yl-1H-pyrazolo[4,3-c]pyridin-4-ol]
0.1 to 1	O=C(CCc1n[nH]c2ccnc(NC3CCCCC3)c12)N1CCC(F)(F)CC1 [Example 168, 3-(4-Cyclohexylamino-1H-pyrazolo[4,3-c]pyridin-3-yl)-1-(4,4-difluoro-piperidin-1-yl)-propan-1-one]
0.1 to 1	O=C(CCc1n[nH]c2ccnc(NC3CCCCC3)c12)N1CCCCC1 [Example 169, 3-(4-Cyclohexylamino-1H-pyrazolo[4,3-c]pyridin-3-yl)-1-piperidin-1-yl-propan-1-one]
0.1 to 1	O=C(CCc1n[nH]c2ccnc(NC3CCCCC3)c12)N1CCCC(c2ccccc2)C1 (centres unmarked) [Example 170, 3-(4-Cyclohexylamino-1H-pyrazolo[4,3-c]pyridin-3-yl)-1-(3-phenyl-piperidin-1-yl)-propan-1-one]
1 to 10	O=C(CCc1n[nH]c2ccnc(NC3CCCCC3)c12)NC1CC1 [Example 171, 3-(4-Cyclohexylamino-1H-pyrazolo[4,3-c]pyridin-3-yl)-N-cyclopropyl-propionamide]
0.1 to 1	O=C(CCc1n[nH]c2ccnc(NC3CCCCC3)c12)N1CCCC1 [Example 173, 3-(4-Cyclohexylamino-1H-pyrazolo[4,3-c]pyridin-3-yl)-1-pyrrolidin-1-yl-propan-1-one]
1 to 10	CN(C)C1CCN(C(=O)CCc2n[nH]c3ccnc(NC4CCCCC4)c23)CC1 [Example 174, 3-(4-Cyclohexylamino-1H-pyrazolo[4,3-c]pyridin-3-yl)-1-(4-dimethylamino-piperidin-1-yl)-propan-1-one]
0.1 to 1	O=C(CCc1n[nH]c2ccnc(NC3CCCCC3)c12)N1CCOCC1 [Example 175, 3-(4-Cyclohexylamino-1H-pyrazolo[4,3-c]pyridin-3-yl)-1-morpholin-4-yl-propan-1-one]
0.1 to 1	O=C(CCc1n[nH]c2ccnc(NC3CCCCC3)c12)N1CCC(O)(c2ccccc2)CC1 [Example 176, 3-(4-Cyclohexylamino-1H-pyrazolo[4,3-c]pyridin-3-yl)-1-(4-hydroxy-4-phenyl-piperidin-1-yl)-propan-1-one]
0.1 to 1	CN1CCN(C(=O)CCc2n[nH]c3ccnc(NC4CCCCC4)c23)CC1 [Example 177, 3-(4-Cyclohexylamino-1H-pyrazolo[4,3-c]pyridin-3-yl)-1-(4-methyl-piperazin-1-yl)-propan-1-one]
0.1 to 1	COCCN1CCN(C(=O)CCc2n[nH]c3ccnc(NC4CCCCC4)c23)CC1 [Example 178, 3-(4-Cyclohexylamino-1H-pyrazolo[4,3-c]pyridin-3-yl)-1-[4-(2-methoxy-ethyl)-piperazin-1-yl]-propan-1-one]
0.1 to 1	O=C(CCc1n[nH]c2ccnc(NC3CCCCC3)c12)N1CCN(Cc2ccc(F)cc2F)CC1 [Example 179, 3-(4-Cyclohexylamino-1H-pyrazolo[4,3-c]pyridin-3-yl)-1-[4-(2,4-difluoro-benzyl)-piperazin-1-yl]-propan-1-one]
0.1 to 1	O=C(CCc1n[nH]c2ccnc(NC3CCCCC3)c12)N1CCN(c2cccc(Cl)c2)CC1 [Example 180, 1-[4-(3-Chloro-phenyl)-piperazin-1-yl]-3-(4-cyclohexylamino-1H-pyrazolo[4,3-c]pyridin-3-yl)-propan-1-one]

IC50 [µM]	SMILES
0.1 to 1	CCN(CC)C(=O)CCc1n[nH]c2ccnc(NC3CCCCC3)c12 [Example 181, 3-(4-Cyclohexylamino-1H-pyrazolo[4,3-c]pyridin-3-yl)-N,N-diethyl-propionamide]
0.1 to 1	CC(C)CN(C)C(=O)CCc1n[nH]c2ccnc(NC3CCCCC3)c12 [Example 182, 3-(4-Cyclohexylamino-1H-pyrazolo[4,3-c]pyridin-3-yl)-N-isobutyl-N-methyl-propionamide]
0.1 to 1	CN(Cc1ccccc1)C(=O)CCc1n[nH]c2ccnc(NC3CCCCC3)c12 [Example 183, N-Benzyl-3-(4-cyclohexylamino-1H-pyrazolo[4,3-c]pyridin-3-yl)-N-methyl-propionamide]
0.1 to 1	O=C(CCc1n[nH]c2ccnc(NC3CCCCC3)c12)NC1CCCC1 [Example 184, 3-(4-Cyclohexylamino-1H-pyrazolo[4,3-c]pyridin-3-yl)-N-cyclopentyl-propionamide]
1 to 10	O=C(CCc1n[nH]c2ccnc(NC3CCCCC3)c12)NCC1CCOCC1 [Example 185, 3-(4-Cyclohexylamino-1H-pyrazolo[4,3-c]pyridin-3-yl)-N-(tetrahydro-pyran-4-ylmethyl)-propionamide]
1 to 10	O=C(CCc1n[nH]c2ccnc(NC3CCCCC3)c12)NCc1cccc(F)c1 [Example 186, 3-(4-Cyclohexylamino-1H-pyrazolo[4,3-c]pyridin-3-yl)-N-(3-fluoro-benzyl)-propionamide]
1 to 10	O=C(CCc1n[nH]c2ccnc(NC3CCCCC3)c12)Nc1cccc(F)c1 [Example 187, 3-(4-Cyclohexylamino-1H-pyrazolo[4,3-c]pyridin-3-yl)-N-(3-fluoro-phenyl)-propionamide]
1 to 10	O=C(CCc1n[nH]c2ccnc(NC3CCCCC3)c12)Nc1cccnc1 [Example 188, 3-(4-Cyclohexylamino-1H-pyrazolo[4,3-c]pyridin-3-yl)-N-pyridin-3-yl-propionamide]
1 to 10	CN(CCc1ccccc1)C(=O)CCc1n[nH]c2ccnc(NC3CCCCC3)c12 [Example 189, 3-(4-Cyclohexylamino-1H-pyrazolo[4,3-c]pyridin-3-yl)-N-methyl-N-phenethyl-propionamide]
0.1 to 1	O=C(CCc1n[nH]c2ccnc(NC3CCCCC3)c12)N1CCC[C@@H](c2ccccc2)C1 [Example 190, 3-(4-Cyclohexylamino-1H-pyrazolo[4,3-c]pyridin-3-yl)-1-((S)-3-phenyl-piperidin-1-yl)-propan-1-one]
< 0.1	O=C(CCc1n[nH]c2ccnc(NC3CCCCC3)c12)N1CCCC(F)(F)C1 [Example 191, 3-(4-Cyclohexylamino-1H-pyrazolo[4,3-c]pyridin-3-yl)-1-(3,3-difluoro-piperidin-1-yl)-propan-1-one]
0.1 to 1	CC1CCN(C(=O)CCc2n[nH]c3ccnc(NC4CCCCC4)c23)CC1 [Example 192, 3-(4-Cyclohexylamino-1H-pyrazolo[4,3-c]pyridin-3-yl)-1-(4-methyl-piperidin-1-yl)-propan-1-one]
0.1 to 1	CCN(CC)C(=O)C1CCCN(C(=O)CCc2n[nH]c3ccnc(NC4CCCCC4)c23)C1 (centres unmarked) [Example 193, 1-[3-(4-Cyclohexylamino-1H-pyrazolo[4,3-c]pyridin-3-yl)-propionyl]-piperidine-3-carboxylic acid diethylamide]
< 0.1	O=C(CCc1n[nH]c2ccnc(NC3CCCCC3)c12)N1CCCC(Cc2ccccc2)C1 (centres unmarked) [Example 194, 1-(3-Benzyl-piperidin-1-yl)-3-(4-cyclohexylamino-1H-pyrazolo[4,3-c]pyridin-3-yl)-propan-1-one]
0.1 to 1	O=C(CCc1n[nH]c2ccnc(NC3CCCCC3)c12)N1CCCC(Oc2cccnc2)C1 (centres unmarked) [Example 195, 3-(4-Cyclohexylamino-1H-pyrazolo[4,3-c]pyridin-3-yl)-1-[3-(pyridin-3-yloxy)-piperidin-1-yl]-propan-1-one]
0.1 to 1	COC1CCCN(C(=O)CCc2n[nH]c3ccnc(NC4CCCCC4)c23)C1 (centres unmarked) [Example 196, 3-(4-Cyclohexylamino-1H-pyrazolo[4,3-c]pyridin-3-yl)-1-(3-methoxy-piperidin-1-yl)-propan-1-one]
0.1 to 1	Cc1noc(C2CCCN(C(=O)CCc3n[nH]c4ccnc(NC5CCCCC5)c34)C2)n1 (centres unmarked) [Example 197, 3-(4-Cyclohexylamino-1H-pyrazolo[4,3-c]pyridin-3-yl)-1-[3-(3-methyl-1,2,4-oxadiazol-5-yl)-piperidin-1-yl]-propan-1-one]
0.1 to 1	CC1CCCCN1C(=O)CCc1n[nH]c2ccnc(NC3CCCCC3)c12 (centres unmarked) [Example 198, 3-(4-Cyclohexylamino-1H-pyrazolo[4,3-c]pyridin-3-yl)-1-(2-methyl-piperidin-1-yl)-propan-1-one]
< 0.1	CC1CCCN(C(=O)CCc2n[nH]c3ccnc(NC4CCCCC4)c23)C1 (centres unmarked) [Example 199, 3-(4-Cyclohexylamino-1H-pyrazolo[4,3-c]pyridin-3-yl)-1-(3-methyl-piperidin-1-yl)-propan-1-one]
